Common to all, as to format: functional
Experiment [1] concerns Trypanosoma cruzi. Put plainly: Trypanocidal activity against Trypanosoma cruzi trypomastigote assessed as lysis of trypomastigotes at 250 ug/mL after 24 hrs relative to control.
The subject of experiment [2] is Leishmania braziliensis. Kind of experiment: Antileishmanial against Leishmania brasiliensis 2903 promastigote assessed as lysis of parasites at 100 ug/mL after 48 hrs.
Experiment [3] has as its system Leishmania amazonensis. Kind of experiment: Antileishmanial against Leishmania amazonensis promastigote LV 79 assessed as total lysis of parasites after 48 hrs.
The test system of experiment [4] is Leishmania amazonensis. Kind of experiment: Antileishmanial against Leishmania amazonensis promastigote LV 79 assessed as lysis of parasites at 50 ug/mL after 48 hrs.
The test system of experiment [5] is Leishmania donovani. Kind of experiment: Antileishmanial against Leishmania donovani promastigote PP-75 assessed as total lysis of parasites after 48 hrs.
The subject of experiment [6] is Leishmania donovani. Kind of experiment: Antileishmanial against Leishmania donovani promastigote PP-75 assessed as lysis of parasites at 25 ug/mL after 48 hrs.
The test system of experiment [7] is Leishmania braziliensis. Put plainly: Antileishmanial against Leishmania brasiliensis 2903 promastigote assessed as total lysis of parasites after 48 hrs.
Experiment [8] has as its system Leishmania amazonensis. Put plainly: Antileishmanial against Leishmania amazonensis promastigote LV 79 assessed as lysis of parasites at 10 ug/mL after 48 hrs.
Experiment [9] has as its system Leishmania donovani. Put plainly: Antileishmanial against Leishmania donovani promastigote PP-75 assessed as lysis of parasites at 10 ug/mL after 48 hrs.

Bounds are passed on as bounds.

In the case of `COc1cc2c3c(c1O)-c1cc4c(cc1CC3N(C(C)=O)CC2)OCO4` (stereo unspecified) [ACETYLNORDOMESTICINE], the Activity in experiment [1] is given as 60%.

Regarding `COC(=O)/C=C/c1cc(OC)c(O)c(OC)c1` [METHYL SINAPATE], the Activity in experiment [1] came to 44%.

As for `O=C1c2ccccc2-c2c3c(cc4ccnc1c24)OCO3` [LIRIODENINE], the Activity was 50% in experiment [1]; 90% in experiment [2]; 100 µg/mL in experiment [3]; 90% in [4]; 100 µg/mL in [5]; 90% in experiment [6].

Consider `COc1cc2c(cc1O)-c1c(O)c(OC)cc3c1[C@H](C2)NCC3` [NORBRACTEOLINE], for which the Activity in [1] was 62%.

Turning to `COc1cc2c(cc1O)[C@@H]1Cc3cc(O)c(O)cc3CN1CC2`, the Activity in experiment [1] is 55%.

Take `c1ccc2c(c1)C[C@H]1NCCc3cc4c(c-2c31)OCO4` [ANONAINE]: the Activity in [7] came to 50 µg/mL; in experiment [1], 99%; in [3], 25 µg/mL; in experiment [8], 90%; in [5] it was 100 µg/mL; in experiment [9] it was 90%.

In the case of `COc1cc2c3c(c1OC)C1(C=CC(=O)C=C1)C[C@@H]3NCC2` [STEPHARINE], the Activity in experiment [1] is given as 65%.

As for `CN(C)c1ccc(C(=C2C=CC(=[N+](C)C)C=C2)c2ccc(N(C)C)cc2)cc1.[Cl-]` [GENTIAN VIOLET], the Activity in experiment [1] was 100%.

In the case of MEGLUMINE ANTIMONATE, the Activity in experiment [7], in experiment [3] and in experiment [5] was greater than 100 µg/mL each time.

The record behind these values is ChEMBL document CHEMBL1158248, “Pessoine and spinosine, two catecholic berbines from Annona spinescens” (1996).
